pIC50: −log10 of the molar value.

For orientation: pIC50 means the IC50 on a negative log10 scale, so that one unit is a factor of ten.

Chain of Escherichia coli DNA gyrase A/B tetramer (P0AES4 whole entry, one chain of several): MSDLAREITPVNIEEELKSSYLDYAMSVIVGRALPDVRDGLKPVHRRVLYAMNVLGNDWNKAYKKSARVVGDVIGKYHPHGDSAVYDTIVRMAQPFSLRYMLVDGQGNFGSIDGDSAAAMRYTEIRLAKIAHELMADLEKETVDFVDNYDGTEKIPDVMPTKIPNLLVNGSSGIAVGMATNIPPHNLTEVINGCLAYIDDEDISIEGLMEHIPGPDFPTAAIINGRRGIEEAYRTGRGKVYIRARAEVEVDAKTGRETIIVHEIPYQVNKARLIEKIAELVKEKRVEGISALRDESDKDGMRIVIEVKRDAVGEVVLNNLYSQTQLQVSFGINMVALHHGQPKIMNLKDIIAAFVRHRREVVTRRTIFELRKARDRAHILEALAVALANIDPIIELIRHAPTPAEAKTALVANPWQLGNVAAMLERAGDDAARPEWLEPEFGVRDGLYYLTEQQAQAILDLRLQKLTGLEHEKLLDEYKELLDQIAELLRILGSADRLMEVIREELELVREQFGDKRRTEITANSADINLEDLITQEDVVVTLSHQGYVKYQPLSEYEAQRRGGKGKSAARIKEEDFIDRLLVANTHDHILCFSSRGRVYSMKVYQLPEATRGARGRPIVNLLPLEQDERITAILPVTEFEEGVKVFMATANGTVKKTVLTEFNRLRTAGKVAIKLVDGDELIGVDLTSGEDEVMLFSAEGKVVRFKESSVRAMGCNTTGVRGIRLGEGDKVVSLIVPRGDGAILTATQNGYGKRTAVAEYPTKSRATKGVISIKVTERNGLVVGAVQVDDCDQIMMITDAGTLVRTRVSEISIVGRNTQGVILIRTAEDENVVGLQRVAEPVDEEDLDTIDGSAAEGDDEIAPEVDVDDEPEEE

The first assay has as its target Escherichia coli DNA gyrase A/B tetramer (Escherichia coli, UniProt P0AES4+P0AES6). Kind of assay: DNA gyrase supercoiling activity fluorescence polarisation assay. The format is biochemical.
Conditions: not given
As for the experimental part: In a black, 384-well polystyrene assay plate, 30 microliters/well of 5 nM Escherichia coli DNA gyrase A/B tetramer and 130 micrograms/ml of topologically relaxed plasmid containing the triplex-forming sequence […] in an assay buffer consisting of 35 mM Tris-HCl (pH 7.5), 24 mM KCl, 4 mM MgCl2, 2 mM dithiothreitol, 1.8 mM spermidine, 5% (v/v) glycerol, 200 nM bovine serum albumin, 0.8% dimethylsulfoxide, and 0.3 mM ATP may be incubated at ambient temperature for (typically 30 minutes) in the absence or presence of 5-10 different concentrations of test compound. The supercoiling reactions may be quenched by the addition of 10 microliters/well of 40 nM oligodeoxynucleotide probe in 3× triplex-forming buffer consisting of 150 mM NaCl, and 150 mM sodium acetate at pH 3.5. The oligodeoxynucleotide probe may be 5′-BODIPY-FL-labeled TTCTTCTTC. After 60 minutes, the fluorescence anisotropy of the BODIPY-FL may be measured in a Tecan Ultra plate reader, using 485 nm excitation and 535 nm emission filters equipped with polarizers. The IC50 may be determined by nonliner regression using two control reactions. The first contains no test compound but 0.8% DMSO (100% activity) while the second control reaction contains 5 uM Ciprofloxacin and 0.8% DMSO (0% activity).
When tested in an in-vitro assay based on the DNA gyrase supercoiling activity fluorescence polarisation assay described above, the E. coli DNA gyrase supercoiling IC50 assay inhibitory activity of the following Examples was measured at the indicated IC50.
(Fluorescence polarisation rises when a labelled molecule tumbles more slowly, as on binding a larger partner.)
On to `C[C@@H]1CN2c3cc(F)c(C#Cc4nc5ccccc5s4)cc3CC3(C(=O)NC(=O)NC3=O)[C@H]2[C@H](C)O1` (relative stereo) [Example 34, (2R,4S,4aS)-rel-8-(1,3-Benzothiazol-2-ylethynyl)-9-fluoro-2,4-dimethyl-1,2,4,4a-tetrahydro-2′H,6H-spiro[1,4-oxazino[4,3-a]quinoline-5,5′-pyrimidine]-2′,4′,6′(1′H,3′H)-trione], for which the negative logarithm of the IC50 (pIC50) is 5.53.

With `C[C@@H]1CN2c3c(cc(C#Cc4nccn4C)c(F)c3F)CC3(C(=O)NC(=O)NC3=O)[C@H]2[C@H](C)O1` (racemic) [Example 12, (2R,4S,4aS)-rel-9,10-Difluoro-2,4-dimethyl-8-[(1-methyl-1H-imidazol-2-yl)ethynyl]-1,2,4,4a-tetrahydro-2′H,6H-spiro[1,4-oxazino≡[4,3-a]quinoline-5,5′-pyrimidine]-2′,4′,6′(1′H,3H)-trione], the pIC50 was 6.16.

Turning to `C[C@@H]1CN2c3c(F)cc(C#Cc4nncs4)cc3CC3(C(=O)NC(=O)NC3=O)[C@H]2[C@H](C)O1` (relative stereo) [Example 36, (2R,4S,4aS)-rel-10-Fluoro-2,4-dimethyl-8-(1,3,4-thiadiazol-2-ylethynyl)-1,2,4,4a-tetrahydro-2′H,6H-spiro[1,4-oxazino[4,3-a]quinoline-5,5′-pyrimidine]-2′,4′,6′(1′H,3′H)-trione], the pIC50 is 6.15.

The compound `C[C@H]1CN2c3c(cc(C#Cc4nccs4)c(F)c3F)CC3(C(=O)NC(=O)NC3=O)[C@@H]2[C@@H](C)O1` (relative stereo) [Example 8, (2S,4R,4aR)-rel-9,10-Difluoro-2,4-dimethyl-8-(1,3-thiazol-2-ylethynyl)-1,2,4,4a-tetrahydro-2′H,6H-spiro[1,4-oxazino[4,3-a]quinoline-5,5′-pyrimidine]-2′,4′,6′(1′H,3′H)-trione] gave a pIC50 of 5.89.

`CC(=O)N/N=C(\C)c1cc2c(c(F)c1F)N1C[C@@H](C)O[C@@H](C)[C@@H]1C1(C2)C(=O)NC(=O)NC1=O` (relative stereo) [Example 48, N′-{(1E)-1-[(2R,4S,4aS)-rel-9,10-Difluoro-2,4-dimethyl-2′,4′,6′-trioxo-1,1′,2,3′,4,4′,4a,6′-octahydro-2′H,6H-spiro[1,4-oxazino[4,3-a]quinoline-5,5′-pyrimidin]-8-yl]ethylidene}acetohydrazide]: the pIC50 was 5.89.

With `C[C@@H]1CN2c3c(F)cc(C#Cc4cnccn4)cc3CC3(C(=O)NC(=O)NC3=O)[C@H]2[C@H](C)O1` (relative stereo) [Example 43, (2R,4S,4aS)-rel-10-Fluoro-2,4-dimethyl-8-(pyrazin-2-ylethynyl)-1,2,4,4a-tetrahydro-2′H,6H-spiro[1,4-oxazino[4,3-a]quinoline-5,5′-pyrimidine]-2′,4′,6′(1′H,3′H)-trione], the pIC50 was 5.83.

Take `Cc1nnc(C#Cc2cc3c(c(F)c2F)N2C[C@H](C)O[C@H](C)[C@H]2C2(C3)C(=O)NC(=O)NC2=O)s1` (relative stereo) [Example 5, (2S,4R,4aR)-rel-9,10-Difluoro-2,4-dimethyl-8-[(5-methyl-1,3,4-thiadiazol-2-yl)ethynyl]-1,2,4,4a-tetrahydro-2′H,6H-spiro[1,4-oxazino[4,3-a]quinoline-5,5′-pyrimidine]-2′,4′,6′(1′H,3′H)-trione]: the pIC50 was 5.73.

`C[C@@H]1CN2c3c(cc(C#Cc4ccc(-c5nnn[nH]5)s4)c(F)c3F)CC3(C(=O)NC(=O)NC3=O)[C@H]2[C@H](C)O1` (relative stereo) [Example 14, (2R,4S,4aS)-rel-9,10-Difluoro-2,4-dimethyl-8-{[5-(1H-tetrazol-5-yl)thiophen-2-yl]ethynyl}-1,2,4,4a-tetrahydro-2′H,6H-spiro[1,4-oxazino[4,3-a]quinoline-5,5′-pyrimidine]-2′,4′,6′(1′H,3′H)-trione]: the negative-log IC50 (pIC50) was 5.95.

On to `C[C@@H]1CN2c3cc(F)c(C#Cc4nccs4)cc3CC3(C(=O)NC(=O)NC3=O)[C@H]2[C@H](C)O1` (relative stereo) [Example 26, (2R,4S,4aS)-rel-9-Fluoro-2,4-dimethyl-8-(1,3-thiazol-2-ylethynyl)-1,2,4,4a-tetrahydro-2′H,6H-spiro[1,4-oxazino[4,3-a]quinoline-5,5′-pyrimidine]-2′,4′,6′(1′H,3′H)-trione], for which the negative logarithm of the IC50 (pIC50) was 5.97.

For the compound `C[C@@H]1CN2c3c(cc(C(=O)NC4CCOC4=O)c(F)c3F)CC3(C(=O)NC(=O)NC3=O)[C@H]2[C@H](C)O1` (relative stereo) [Example 61, (2R,4S,4aS)-rel-9,10-Difluoro-2,4-dimethyl-2′,4′,6′-trioxo-N-(2-oxotetrahydrofuran-3-yl)-1,1′,2,3′,4,4′,4a,6′-octahydro-2′H,6H-spiro[1,4-oxazino[4,3-a]quinoline-5,5′-pyrimidine]-8-carboxamide], the negative logarithm of the IC50 (pIC50) is 5.32.

On to `C[C@@H]1CN2c3ccc(NC(=O)N4CCNC4=O)cc3CC3(C(=O)NC(=O)NC3=O)[C@H]2[C@H](C)O1` (relative stereo) [Example 76, N-[(2R,4S,4aS)-rel-2,4-Dimethyl-2′,4′,6′-trioxo-1,1′,2,3′,4,4′,4a,6′-octahydro-2′H,6H-spiro[1,4-oxazino[4,3-a]quinoline-5,5′-pyrimidin]-8-yl]-2-oxoimidazolidine-1-carboxamide], for which the negative-log IC50 (pIC50) is 4.78.

The compound `C[C@@H]1CN2c3cc(F)c(C#Cc4cc5ccccc5s4)cc3CC3(C(=O)NC(=O)NC3=O)[C@H]2[C@H](C)O1` (racemic) [Example 29, (2R,4S,4aS)-rel-8-(1-Benzothiophen-2-ylethynyl)-9-fluoro-2,4-dimethyl-1,2,4,4a-tetrahydro-2′H,6H-spiro[1,4-oxazino[4,3-a]quinoline-5,5′-pyrimidine]-2′,4′,6′(1′H,3′H)-trione] gave a pIC50 of 4.70.

For the compound `C[C@H]1CN2c3c(cc(C#Cc4nncs4)c(F)c3F)CC3(C(=O)NC(=O)NC3=O)[C@@H]2[C@@H](C)O1` (relative stereo) [Example 7, (2S,4R,4aR)-rel-9,10-Difluoro-2,4-dimethyl-8-(1,3,4-thiadiazol-2-ylethynyl)-1,2,4,4a-tetrahydro-2′H,6H-spiro[1,4-oxazino[4,3-a]quinoline-5,5′-pyrimidine]-2′,4′,6′(1′H,3′H)-trione], the negative logarithm of the IC50 (pIC50) is 6.39.

For the compound `C[C@@H]1CN2c3ccc(NC(=O)Nc4ccccc4)cc3CC3(C(=O)NC(=O)NC3=O)[C@H]2[C@H](C)O1` (relative stereo) [Example 73, 1-[(2R,4S,4aS)-rel-2,4-Dimethyl-2′,4′,6′-trioxo-1,1′,2,3′,4,4′,4a,6′-octahydro-2′H,6H-spiro[1,4-oxazino[4,3-a]quinoline-5,5′-pyrimidin]-8-yl]-3-phenylurea], the pIC50 was 5.30.

Turning to `C/C(=N\NC(=O)C1CC1)c1cc2c(c(F)c1F)N1C[C@@H](C)O[C@@H](C)[C@@H]1C1(C2)C(=O)NC(=O)NC1=O` (relative stereo) [Example 56, N′-{(1E)-1-[(2R,4S,4aS)-rel-9,10-Difluoro-2,4-dimethyl-2′,4′,6′-trioxo-1,1′,2,3′,4,4′,4a,6′-octahydro-2′H,6H-spiro[1,4-oxazino[4,3-a]quinoline-5,5′-pyrimidin]-8-yl]ethylidene}cyclopropanecarbohydrazide], the pIC50 is 5.73.

The compound `C[C@@H]1CN2c3c(cc(C(=O)NC4CCOC4)c(F)c3F)CC3(C(=O)NC(=O)NC3=O)[C@H]2[C@H](C)O1` (relative stereo) [Example 64, (2R,4S,4aS)-rel-9,10-Difluoro-2,4-dimethyl-2′,4′,6′-trioxo-N-(tetrahydrofuran-3-yl)-1,1′,2,3′,4,4′,4a,6′-octahydro-2′H,6H-spiro[1,4-oxazino[4,3-a]quinoline-5,5′-pyrimidine]-8-carboxamide] gave a negative-log IC50 (pIC50) of 5.30.

Turning to `C[C@@H]1CN2c3c(F)cc(C#Cc4cccnc4)cc3CC3(C(=O)NC(=O)NC3=O)[C@H]2[C@H](C)O1` (relative stereo) [Example 44, (2R,4S,4aS)-rel-10-Fluoro-2,4-dimethyl-8-(pyridin-3-ylethynyl)-1,2,4,4a-tetrahydro-2′H,6H-spiro[1,4-oxazino[4,3-a]quinoline-5,5′-pyrimidine]-2′,4′,6′(1′H,3′H)-trione], the negative logarithm of the IC50 (pIC50) is 6.66.

For `C[C@@H]1CN2c3ccc(NC(=O)N(C)C)cc3CC3(C(=O)NC(=O)NC3=O)[C@H]2[C@H](C)O1` (relative stereo) [Example 77, 3-[(2R,4S,4aS)-rel-2,4-Dimethyl-2′,4′,6′-trioxo-1,1′,2,3′,4,4′,4a,6′-octahydro-2′H,6H-spiro[1,4-oxazino[4,3-a]quinoline-5,5′-pyrimidin]-8-yl]-1,1-dimethylurea], the pIC50 is 4.66.

Staying with this assay, now noted: 5 nM enzyme, 0.3 mM ATP, relaxed plasmid, fluorescence anisotropy readout; read-out: E. coli DNA gyrase supercoiling IC50.
As for `C[C@@H]1CN2c3cc(F)c(C#Cc4nccn4C)cc3C(=O)C3(CNC(=O)NC3=O)[C@H]2[C@H](C)O1` (relative stereo) [Example 30, (2R,4S,4aS)-rel-9-Fluoro-2,4-dimethyl-8-[(1-methyl-1H-imidazol-2-yl)ethynyl]-1,2,4,4a-tetrahydro-2′H,6H-spiro[1,4-oxazino[4,3-a]quinoline-5,5′-pyrimidine]-2′,4′,6(1′H,3′H)-trione], the pIC50 is 5.94.

For the origin of these results see patent US20100261719A1, “CHEMICAL COMPOUNDS” (priority 2007, published 2010).
